Laboratory results reported in patent US20090246212A1, “DEVELOPMENT OF METHOD FOR SCREENING FOR DRUG CAPABLE OF IMPROVING PRODUCTION OF REGULATORY T CELLS AND METHOD FOR PRODUCING REGULATORY T CELLS USING IMMUNOSUPPRESSIVE MACROLIDE ANTIBIOTIC” (KYOTO UNIVERSITY, priority 2005, published 2009).

Experiments:
[1] = tested on: CD45RA^+CD25^−CD4^+ T cells; assay: Expansion culture of CD45RA^+CD25^−CD4^+ T cells with anti-CD3/CD28 beads and IL-2, rapamycin added; assay type: cell-based, human
Protocol: Venous blood was obtained from healthy volunteers (human). Peripheral blood mononuclear cell (PBMC) was isolated by Ficoll-Hypaque (Amersham Biosciences-Uppsala) density gradient centrifugation. The cells were stained with allophycocyanin (APC)-conjugated anti-CD4 monoclonal antibody (mAb), phycoerythrin (PE)-conjugated anti-CD25 mAb, and fluorescein isothiocyanate (FITC)-conjugated anti-CD45RA mAb for 30 min at 4° C. in the dark, after which the following six different cell fractions were isolated using a BD FACSAria cell sorter (Becton Dickinson)(see FIG. 1A).
(§1) CD45RA^+CD25^+CD4^+ T cells or CD45RA^+CD25^−CD4^+ T cells (5×10̂4 cells/well) separated as described above were stimulated with anti-human CD3 and CD28 conjugate beads in a ratio of 4 beads per cell in a 96-well round-bottomed culture plate containing 200 μl per well of a proliferation medium (AlyS505N (produced by Cell Science & Technology Institute) supplemented with 2% human AB serum) in the presence of human IL-2 (1000 U/ml, produced by Cell Science & Technology Institute). Rapamycin (20 nM, produced by Sigma) was added as appropriate. Every 3 to 4 days, half of the medium was replaced with a fresh proliferation medium containing IL-2. If necessary, the cells were separated and repeatedly re-stimulated with anti-CD3/CD28 antibody conjugated beads every 10 to 14 days. Two days before functional assay, the anti-CD3/CD28 antibody conjugated beads were removed magnetically, and the cells were cultured along with 100 U/ml IL-2 in the absence of rapamycin. After 3 times of washing, the cells were used for functional assay.

[2] = tested on: CD45RA^+CD25^+CD4^+ T cell line; assay: Suppression assay ([^3H] thymidine uptake) of the rapamycin-cultured CD45RA^+CD25^+CD4^+ T cell line; assay type: cell-based, human; conditions: then 2 days without rapamycin
Protocol: as §1, with “Two days before functional assay, the anti-CD3/CD28 antibody conjugated beads were removed magnetically, and the cells were cultured along with 100 U/ml IL-2 in the absence of rapamycin. After 3 times of washing, the cells were used for functional assay.” left out
(§2) The indicated number of CD45RA^+CD25^+CD4^+ T cells just isolated from human peripheral blood, expanded CD45RA^+CD25^+CD4^+ T cell lines, or expanded CD45RA^+CD25^−CD4^+ T cell line, alone or along with self responder CD4^+ T cells (5×10̂4 cells/well), were stimulated with radiated (40 Gy) allogenic PBMC (1×10̂5 cells/well) in a round-bottomed 96-well microplate containing a proliferation medium. […] Subsequently, the cells were recovered, and [^3H] thymidine uptake was measured using 1450 Microbeta TriLux (Wallac).

[3] = tested on: CD45RA^+CD25^−CD4^+ T cell line; assay: Suppression assay ([^3H] thymidine uptake) of the rapamycin-cultured CD45RA^+CD25^−CD4^+ T cell line; assay type: cell-based, human; conditions: then 2 days without rapamycin
Protocol: as §1, with “Two days before functional assay, the anti-CD3/CD28 antibody conjugated beads were removed magnetically, and the cells were cultured along with 100 U/ml IL-2 in the absence of rapamycin. After 3 times of washing, the cells were used for functional assay.” left out
as §2

[4] = tested on: CD45RA^+CD25^−CD4^+ T cells; assay: FACS phenotype analysis of the T cell line from CD45RA^+CD25^−CD4^+ T cells cultured with rapamycin; assay type: cell-based, human; conditions: rapamycin 20 nM from day 40, collected day 50
Protocol: PBMC derived from the subjects, or expanded T cell line were incubated with various antibodies for 30 min at 4° C. in the dark, washed, and analyzed using a BD FACSAria cell sorter and a FACSDiVA software (Becton Dickinson). The antibodies used were perCP-conjugated anti-CD4 mAb, biotin-conjugated anti-CD25 mAb, FITC-conjugated anti-CD45RA mAb, PE-conjugated anti-CD45RB mAb, anti-CD45RO mAb, anti-CD62L mAb, anti-CD38 mAb, anti-GITR mAb, and anti-TNFRII mAb. For intracellular staining with CTLA-4, the cells were subjected to cell surface staining, fixation, and permeabilization with Cytofix/Cytoperm solution (Becton Dickinson), and then intracellularly stained with PE-conjugated anti-CTLA-4.
CD45RA^+CD25^+CD4^+ T cells or CD45RA^+CD25^−CD4^+ T cells in human peripheral blood separated in the same manner as Example 1 (5×10̂4 cells/well) were stimulated with anti-human CD3 and CD28 conjugate beads in a ratio of 4 beads per cell in a 96-well round-bottomed culture plate containing 200 μl per well of a proliferation medium (AlyS505N (produced by Cell Science & Technology Institute) supplemented with 2% human AB serum) in the presence of human IL-2 (1000 U/ml, produced by Cell Science & Technology Institute). Rapamycin (20 nM, produced by Sigma) was added to the medium 0 or 40 days after the start of cultivation. Every 3 to 4 days, half of the medium was replaced with a fresh proliferation medium containing IL-2. If necessary, the cells were separated and repeatedly re-stimulated with anti-CD3/CD28 antibody conjugate beads every 10 to 14 days. Fifty days after the start of cultivation, the cells were collected and used for FACS analysis.
Expanded T cell lines were incubated with various antibodies for 30 minutes at 4° C. in the dark, washed, and analyzed using BD FACSAria cell sorter and FACSDiVA software (Becton Dickinson). The antibodies and staining conditions used were the same as Example 1.

Candida albicans = conditions: both in vitro and in vivo, particularly against Candida albicans; cited from earlier work
[5] = used alone or in combination with picibanil; cited from earlier work
[6] = tested on: experimental allergic encephalomyelitis model; conditions: model of multiple sclerosis; cited from earlier work
IgE-like antibody = conditions: in vivo; cited from earlier work

With `CO[C@H]1C[C@@H]2CC[C@@H](C)[C@@](O)(O2)C(=O)C(=O)N2CCCC[C@H]2C(=O)O[C@H]([C@H](C)C[C@@H]2CC[C@@H](O)[C@H](OC)C2)CC(=O)[C@H](C)/C=C(\C)[C@@H](O)[C@@H](OC)C(=O)[C@H](C)C[C@H](C)/C=C/C=C/C=C/1C` [rapamycin] the “influence on the proliferation of the T cell line” value ([1]; rapamycin 20 nM added 19 days after start of cultivation) was “almost no influence”, the “proliferation of CD45RA^+CD25^−CD4^+ T cells” value ([1]; rapamycin 20 nM from the start of cultivation, compared with cultivation in the absence of rapamycin) was “slightly suppressed” and the “increase of cell number in the culture product” value ([1]; rapamycin 20 nM from the start of cultivation, about 35 days after start) was “about 700 times”. The “T cell line's effect on proliferation of CD4^+ T cells in response to alloantigen-presenting cells” value (from here on “T cell line's effect on proliferation”) ([2]; rapamycin added day 7 or day 39, collected 50 days after start) was “strongly suppressed”, the “T cell line's effect on proliferation” value ([2]; rapamycin from day 0, 50 days culture) was “strongly suppressed” and the “T cell line's effect on proliferation” value ([3]; rapamycin added day 19, about 35 days after start) was “strongly suppressed”. The “T cell line's effect on proliferation” value ([3]; rapamycin from day 0, about 35 days culture) was “strongly suppressed”, the “CD25 expression relative to CD45RA^−CD25^high+CD4^+ T cells in peripheral blood” value [4] was “about ⅕” and the “CD45RA expression intensity relative to CD45RA^+CD25^−CD4^+ T cells at the start of cultivation” value [4] was “about 1 time”. The “CD45RO phenotype of the T cell line” value [4] was “negative”, the “CD62L expression relative to CD45RA^−CD25^high+CD4^+ T cells in peripheral blood” value [4] was “about ⅓” and the “GITR / CTLA4 / CD45RB phenotype of the T cell line” value [4] was “GITR^+CTLA4^+CD45RB^high+”. The antifungal activity (Candida albicans) was “possess antifungal activity”, the antitumor activity [5] was “possess antitumor activity” and the “efficacy in experimental allergic encephalomyelitis model” value [6] was “effective”. For the same compound, the “formation of IgE-like antibody” value (IgE-like antibody) was “effectively inhibited”.
